Results reported in patent publication US20250092044A1, “Kinase Inhibitors” (Incyte Corporation, priority 2023, published 2025).

How the values were obtained:
[1] = molecular target: catalytic domain (JH1) of human JAK2 (Homo sapiens (Human), UniProt O60674); assay: JAK2 LanthaScreen JH1 Binding Assay; conditions: read-out: JH1 Bind IC50
Procedure, shortened: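 FLAG-tagged biotinylated JH1 (aa 826-1132, baculovirus-expressed), 1.5 nM, with serially diluted compound, 50 nM fluorescent tracer and 0.5 nM streptavidin-Tb in pH 7.5 Tris buffer, 2 h at 25 °C; nonspecific binding with 2 mM ATP. TR-FRET read, IC50 by four-parameter fit.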

[2] = molecular target: FLT3 (Homo sapiens (Human), UniProt P36888); assay: FLT3 Enzymatic Assay; format: biochemical; conditions: 1 mM ATP
Chain of FLT3 (Homo sapiens (Human), UniProt P36888) (P36888 27-993, species assumed): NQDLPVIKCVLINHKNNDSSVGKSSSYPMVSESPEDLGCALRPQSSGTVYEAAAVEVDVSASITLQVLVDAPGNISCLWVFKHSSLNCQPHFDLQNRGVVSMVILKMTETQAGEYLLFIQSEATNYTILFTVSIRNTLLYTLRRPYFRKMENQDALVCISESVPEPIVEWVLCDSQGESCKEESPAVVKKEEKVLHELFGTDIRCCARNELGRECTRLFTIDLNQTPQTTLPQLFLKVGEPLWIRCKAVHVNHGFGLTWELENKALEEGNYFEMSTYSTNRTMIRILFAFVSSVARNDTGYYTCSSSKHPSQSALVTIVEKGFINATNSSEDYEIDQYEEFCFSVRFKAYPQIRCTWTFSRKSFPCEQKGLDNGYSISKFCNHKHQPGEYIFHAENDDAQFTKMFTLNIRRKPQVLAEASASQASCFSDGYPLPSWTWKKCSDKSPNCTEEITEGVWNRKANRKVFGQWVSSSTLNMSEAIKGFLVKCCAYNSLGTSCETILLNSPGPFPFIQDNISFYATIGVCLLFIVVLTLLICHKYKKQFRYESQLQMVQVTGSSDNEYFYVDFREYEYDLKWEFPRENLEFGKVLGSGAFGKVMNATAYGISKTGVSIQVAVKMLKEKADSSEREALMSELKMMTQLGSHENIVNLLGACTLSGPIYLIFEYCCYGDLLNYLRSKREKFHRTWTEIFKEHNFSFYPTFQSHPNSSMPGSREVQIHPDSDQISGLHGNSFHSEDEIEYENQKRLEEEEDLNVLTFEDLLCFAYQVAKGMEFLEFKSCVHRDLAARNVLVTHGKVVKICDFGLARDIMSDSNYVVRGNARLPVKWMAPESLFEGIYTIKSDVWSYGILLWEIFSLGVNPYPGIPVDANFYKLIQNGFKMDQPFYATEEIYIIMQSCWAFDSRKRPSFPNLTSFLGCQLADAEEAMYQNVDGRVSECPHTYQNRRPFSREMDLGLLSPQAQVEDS
Procedure, shortened: (§1)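 Room-temperature HTRF kinase assay (665/620 nm ratio) with 0.011 nM FLT3, 1 mM ATP, 500 nM biotinylated TK substrate in HEPES pH 7.0 buffer with MgCl2 and DTT; 0.5% DMSO final. Read after 60 min incubation; IC50 fitted from percent control activity versus log concentration, no-ATP wells as negative control.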

[3] = test system: FLT3; assay: FLT3 Enzymatic Assay; format: biochemical
Procedure, shortened: as §1

[4] = test system: STAT5 (Tyr694) phosphorylation in SET-2 cells; assay: STAT5 (Tyr694) Phosphorylation Cell Based Assay; conditions: Homo sapiens, 2 hours, read-out: SET2 IC50
Procedure, shortened: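 SET-2 cells in RPMI with 10% FBS were exposed to compound for 2 h at 37 °C (0.5% DMSO final). After lysis, phospho-STAT5 (Tyr694) was read by HTRF (665/620 ratio) after 24 h antibody incubation at room temperature. IC50 was fitted from percent control activity versus log concentration.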

[5] = test system: pSTAT5 in SET-2 cells in whole blood; assay: pSTAT5 SET-2 Whole Blood MSD Assay; format: cell-based; conditions: Homo sapiens, 2 hour incubation, read-out: SET2 WB IC50
Method: SET-2 cells shipped from ABS, RPMI1640 medium, Fetal Bovine Serum from Gibco, Phospho-STAT5a,b Whole Cell Lysate Kit from Mesoscale, Retronectin (Recombinant Human Fibronectin Fragment) from TaKaRa, 96 well cell culture plate flat bottom from Corning, lysis buffer from Cell Signaling Technology, and sterile PBS from Gibco. Whole Blood from by BioIVT.
SET-2 cells were cultured in RPMI media with 20% FBS at 37° C. humidified incubator supplied with 5% CO2. On the day of the assay, 40 uL per well of diluted retronectin working solution was added to sterile 96-well clear flat bottom tissue culture plates (1:200 dilution of retronectin in sterile PBS) and incubated at 37 C for 1 hour. After 1 hour, the retronectin working solution was aspirated and SET-2 cells were seeded at 100,000/well in RPMI+20% FBS. Cells were incubated overnight at 37° C. and 5% CO2. The next day, the medium was removed and 40 μL of diluted compounds in serum-free RPMI and whole blood was added to the cells for a 2 hour incubation at 37° C. and 5% CO2. The compound starting concentration is 20 μM and 2.5 fold serial diluted down to 0.21 nM. The whole blood and compound mixture was then aspirated off using the BlueCat plate washer and washed 1× with PBS. Cells were lysed by adding 40 μL of 3× complete lysis buffer and shaken at room temperature for 45-60 minutes (complete lysis buffer consists of Cell Signaling Technology lysis buffer diluted to 3× and supplemented with Mesoscale's protease inhibitor, phosphatase I inhibitor, and phosphatase II inhibitor). The pSTAT5 MSD plates were blocked by adding 150 μL of Blocker A solution per well to the MSD plates and incubated at room temperature with shaking at 400 rpm for one hour or longer. After blocking, plates were washed 3× with 300 μL/well of 1× Tris Wash Buffer. After lysis, added 25 μL per well of lysed sample was added to MSD plate and incubated with shaking at 4° C. wrapped in foil overnight. The next day, plates were washed again and 25 μL/well of diluted 1× Detection Antibody Solution, wrapped in foil, and incubated at room temperature with shaking at 400 rpm for 1 hour. Plates were then washed again and lastly, 150 μL/well of 1× Read Buffer T was added to all wells. Plates were analyzed on MSD Discovery within 5 minutes. […] Data analysis was performed in GraphPad Prism using a 4-parameter fit and data was reported as Average±SD.

Chain of catalytic domain (JH1) of human JAK2 (O60674 826-1132): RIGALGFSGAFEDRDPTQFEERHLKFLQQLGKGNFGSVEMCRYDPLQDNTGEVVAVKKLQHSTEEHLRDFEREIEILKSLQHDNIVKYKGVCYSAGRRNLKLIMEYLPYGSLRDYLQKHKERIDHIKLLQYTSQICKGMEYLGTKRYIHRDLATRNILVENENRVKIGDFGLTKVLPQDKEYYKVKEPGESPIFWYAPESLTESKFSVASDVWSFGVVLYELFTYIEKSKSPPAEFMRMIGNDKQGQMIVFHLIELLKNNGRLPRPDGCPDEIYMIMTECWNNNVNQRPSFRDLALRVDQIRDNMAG

Row | SMILES | IC50 [1] | IC50 [2] | Selectivity FLT3/JH2 V617F [3] | IC50 [4] | IC50 [5]
1 | CNC(=O)c1ccc(-c2[nH]c3ncc4c(c3c2-c2ccc3c(cnn3C(C)C)c2)n([C@@H]2CC[C@@H](NC(=O)OC)C2)c(=O)n4C)cc1F [Example 12, Methyl ((1R,3R)-3-(7-(3-fluoro-4-(methylcarbamoyl)phenyl)-8-(1-isopropyl-1H-indazol-5-yl)-3-methyl-2-oxo-3,6-dihydroimidazo[4,5-d]pyrrolo[2,3-b]pyridin-1(2H)-yl)cyclopentyl)carbamate] | > 1000 nM | > 2500 nM | ****** (selectivity of >12500-fold) | ≤ 300 nM | > 7500 nM
2 | COC(=O)N[C@@H]1CC[C@@H](n2c(=O)n(C)c3cnc4[nH]c(-c5ccc(C(=O)NCC(F)(F)F)c(F)c5)c(-c5ccc6c(cnn6C(C)C)c5)c4c32)C1 [Example 11, Methyl ((1R,3R)-3-(7-(3-fluoro-4-((2,2,2-trifluoroethyl)carbamoyl)phenyl)-8-(1-isopropyl-1H-indazol-5-yl)-3-methyl-2-oxo-3,6-dihydroimidazo[4,5-d]pyrrolo[2,3-b]pyridin-1(2H)-yl)cyclopentyl)carbamate] | > 1000 nM | > 2500 nM | ****** (selectivity of >12500-fold) | ≤ 300 nM | > 7500 nM
3 | COC(=O)N[C@@H]1CC[C@@H](n2c(=O)n(C)c3cnc4[nH]c(-c5ccc(C(=O)NC6CC6C(F)(F)F)c(F)c5)c(-c5ccc6c(cnn6C(C)C)c5)c4c32)C1 (stereo partly drawn) [Example 10, Methyl ((1R,3R)-3-(7-(3-fluoro-4-((2-(trifluoromethyl)cyclopropyl)carbamoyl)phenyl)-8-(1-isopropyl-1H-indazol-5-yl)-3-methyl-2-oxo-3,6-dihydroimidazo[4,5-d]pyrrolo[2,3-b]pyridin-1(2H)-yl)cyclopentyl)carbamate] | > 1000 nM | > 2500 nM | ****** (selectivity of >12500-fold) | 300 to 800 nM | > 7500 nM
4 | COC(=O)N[C@@H]1CC[C@@H](n2c(=O)n(C)c3cnc4[nH]c(-c5ccc(C(=O)N6CCOCC6)c(F)c5)c(-c5ccc6c(cnn6C(C)C)c5)c4c32)C1 [Example 16, Methyl ((1R,3R)-3-(7-(3-fluoro-4-(morpholine-4-carbonyl)phenyl)-8-(1-isopropyl-1H-indazol-5-yl)-3-methyl-2-oxo-3,6-dihydroimidazo[4,5-d]pyrrolo[2,3-b]pyridin-1(2H)-yl)cyclopentyl)carbamate] | > 1000 nM | 1250 to 2500 nM | ****** (selectivity of >12500-fold) | ≤ 300 nM | 2500 to 5000 nM
5 | CCNC(=O)c1ccc(-c2[nH]c3ncc4c(c3c2-c2ccc3c(cnn3C(C)C)c2)n([C@@H]2CC[C@@H](NC(=O)OC)C2)c(=O)n4C)cc1 [Example 23, Methyl ((1R,3R)-3-(7-(4-(ethylcarbamoyl)phenyl)-8-(1-isopropyl-1H-indazol-5-yl)-3-methyl-2-oxo-3,6-dihydroimidazo[4,5-d]pyrrolo[2,3-b]pyridin-1(2H)-yl)cyclopentyl)carbamate] | > 1000 nM | 250 to 1250 nM | **** (selectivity of >1750-fold to ≤5000-fold) | ≤ 300 nM | 2500 to 5000 nM
6 | COC(=O)N[C@@H]1CC[C@@H](n2c(=O)n(C)c3cnc4[nH]c(-c5ccc(C(=O)NC6CC6)c(F)c5)c(-c5ccc6c(cnn6C(C)C)c5)c4c32)C1 [Example 8, Methyl ((1R,3R)-3-(7-(4-(cyclopropylcarbamoyl)-3-fluorophenyl)-8-(1-isopropyl-1H-indazol-5-yl)-3-methyl-2-oxo-3,6-dihydroimidazo[4,5-d]pyrrolo[2,3-b]pyridin-1(2H)-yl)cyclopentyl)carbamate] | > 1000 nM | > 2500 nM | ****** (selectivity of >12500-fold) | 300 to 800 nM | 5000 to 7500 nM
7 | [2H]C([2H])([2H])N(Cc1ccc(-c2[nH]c3ncc4c(c3c2-c2ccc(OCCOC)cc2)n([C@@H]2CC[C@@H](NC(=O)OC)C2)c(=O)n4C([2H])([2H])[2H])cc1)C([2H])([2H])[2H] [Example 27, Methyl ((1R,3R)-3-(7-(4-((bis(methyl-d3)amino)methyl)phenyl)-8-(4-(2-methoxyethoxy)phenyl)-3-(methyl-d3)-2-oxo-3,6-dihydroimidazo[4,5-d]pyrrolo[2,3-b]pyridin-1(2H)-yl)cyclopentyl)carbamate] | > 1000 nM | 250 to 1250 nM | *** (selectivity of >1500-fold to ≤1750-fold) | ≤ 300 nM | ≤ 2500 nM
8 | CNC(=O)c1ccc(-c2[nH]c3ncc4c(c3c2-c2ccc3c(cnn3C(C)C)c2)n([C@@H]2CC[C@@H](NC(=O)OC)C2)c(=O)n4C)cc1 [Example 21, Methyl ((1R,3R)-3-(8-(1-isopropyl-1H-indazol-5-yl)-3-methyl-7-(4-(methylcarbamoyl)phenyl)-2-oxo-3,6-dihydroimidazo[4,5-d]pyrrolo[2,3-b]pyridin-1(2H)-yl)cyclopentyl)carbamate] | > 1000 nM | 250 to 1250 nM | ***** (selectivity of >5000-fold to ≤12500-fold) | 300 to 800 nM | > 7500 nM
9 | COCCNC(=O)c1ccc(-c2[nH]c3ncc4c(c3c2-c2ccc3c(cnn3C(C)C)c2)n([C@@H]2CC[C@@H](NC(=O)OC)C2)c(=O)n4C)cc1F [Example 14, Methyl ((1R,3R)-3-(7-(3-fluoro-4-((2-methoxyethyl)carbamoyl)phenyl)-8-(1-isopropyl-1H-indazol-5-yl)-3-methyl-2-oxo-3,6-dihydroimidazo[4,5-d]pyrrolo[2,3-b]pyridin-1(2H)-yl)cyclopentyl)carbamate] | > 1000 nM | > 2500 nM | ****** (selectivity of >12500-fold) | ≤ 300 nM | 5000 to 7500 nM
